In patent US20050222173A1, “Triazolopyrimidines” (priority 2002, published 2005):

Test: logP determination by HPLC (EEC Directive 79/831 Annex V. A8)
Conditions: HPLC, gradient method, acetonitrile/0.1% aqueous phosphoric acid
Work on `CON(C)c1c(-c2c(F)cc(F)cc2F)c(Cl)nc2nc(Cl)nn12` [Example 71] yielded a log.P of 3.36. With `CC1=CCCN(c2c(-c3c(F)cc(F)cc3F)c(Cl)nc3nc(Br)nn23)C1` [Example 72] the log.P was 4.19. In the case of `CCC(C)CNc1c(-c2c(F)cc(F)cc2F)c(Cl)nc2nc(Br)nn12` (centres unmarked) [Example 73], the log.P is reported as 4.05. `CCC(C)Nc1c(-c2c(F)cc(F)cc2F)c(Cl)nc2nc(Cl)nn12` (centres unmarked) [Example 74] showed a log.P of 3.7. Work on `CCN(CCOC)c1c(-c2c(F)cc(F)cc2F)c(Cl)nc2nc(Br)nn12` [Example 75] yielded a log.P of 3.62. Work on `C=C(C)CN(CC)c1c(-c2c(F)cc(F)cc2F)c(Cl)nc2nc(Br)nn12` [Example 76] yielded a log.P of 4.4. Work on `CCN(CCOC)c1c(-c2c(F)cc(F)cc2F)c(Cl)nc2nc(Cl)nn12` [Example 77] yielded a log.P of 3.61. Compound `C=C(C)CN(CC)c1c(-c2c(F)cc(F)cc2F)c(Cl)nc2nc(Cl)nn12` [Example 78] has a log.P of 4.4. With `COc1nc2nc(Cl)c(-c3c(F)cc(F)cc3OC)c(NC(C)C(F)(F)F)n2n1` (centres unmarked) [Example 80] the log.P was 3.18. `FC(F)(F)C1CCN(c2c(-c3ccccc3Cl)c(Cl)nc3nc(Cl)nn23)CC1` [Example 81] showed a log.P of 4.22. Compound `CC1CCN(c2c(-c3ccccc3Cl)c(Cl)nc3nc(Cl)nn23)CC1` [Example 82] has a log.P of 4.62. In the case of `Fc1cc(F)c(-c2c(Cl)nc3nc(Cl)nn3c2N2CCC(F)CC2)c(F)c1` [Example 83], the log.P is reported as 3.55. For `CN1CCN(c2c(-c3c(F)cc(F)cc3F)c(Cl)nc3nc(Cl)nn23)CC1` [Example 84], the log.P was 2.71. `CC1CCCCN1c1c(-c2c(F)cc(F)cc2F)c(Cl)nc2nc(Cl)nn12` (centres unmarked) [Example 85] showed a log.P of 4.33. Work on `C=C(C)CNc1c(-c2c(F)cc(F)cc2F)c(Cl)nc2nc(Cl)nn12` [Example 86] yielded a log.P of 3.37. Work on `CC1=CCCN(c2c(-c3c(F)cc(F)cc3F)c(Cl)nc3nc(Cl)nn23)C1` [Example 87] yielded a log.P of 4.21. For `CC1CCCN(c2c(-c3c(F)cc(F)cc3F)c(Cl)nc3nc(Cl)nn23)C1` (centres unmarked) [Example 88], the log.P was 4.45. Compound `Fc1cc(F)c(-c2c(Cl)nc3nc(Cl)nn3c2N2CCCCC2)c(F)c1` [Example 89] has a log.P of 4.06. Compound `CC1CCN(c2c(-c3c(F)cc(F)cc3F)c(Cl)nc3nc(Cl)nn23)CC1` [Example 90] has a log.P of 4.45. Compound `CCC1=CCN(c2c(-c3c(F)cc(F)cc3F)c(Cl)nc3nc(Cl)nn23)CC1` [Example 91] has a log.P of 4.63. For `CC1CCCN(c2c(-c3ccccc3Cl)c(Cl)nc3nc(Cl)nn23)C1` (centres unmarked) [Example 92], the log.P was 4.64. `CCC1=CCN(c2c(-c3ccccc3Cl)c(Cl)nc3nc(Cl)nn23)CC1` [Example 93] showed a log.P of 4.87. In the case of `CC(C)Nc1c(-c2c(F)cccc2Cl)c(Cl)nc2nc(Cl)nn12` [Example 94], the log.P is reported as 3.42. `CC(C)Nc1c(-c2ccc(F)cc2F)c(Cl)nc2nc(Cl)nn12` [Example 95] gave a log.P of 3.31. `CC(Nc1c(-c2ccc(F)cc2F)c(Cl)nc2nc(Cl)nn12)C(F)(F)F` (centres unmarked) [Example 96] showed a log.P of 3.52. Work on `C[C@@H](Nc1c(-c2ccccc2Cl)c(Cl)nc2nc(Cl)nn12)C(F)(F)F` [Example 97] yielded a log.P of 3.63. In the case of `C[C@H](Nc1c(-c2c(F)cc(F)cc2F)c(Cl)nc2nc(Br)nn12)C(F)(F)F` [Example 99], the log.P is reported as 3.59. Work on `C[C@H](Nc1c(-c2c(F)cccc2Cl)c(Cl)nc2nc(Cl)nn12)C(F)(F)F` [Example 100] yielded a log.P of 3.6. Compound `CC(C)CNc1c(-c2ccc(F)cc2F)c(Cl)nc2nc(Cl)nn12` [Example 101] has a log.P of 3.61. With `CCC(C)Nc1c(-c2ccc(F)cc2F)c(Cl)nc2nc(Cl)nn12` (centres unmarked) [Example 102] the log.P was 3.63. `Fc1ccc(-c2c(Cl)nc3nc(Cl)nn3c2NC2CCCC2)c(F)c1` [Example 103] gave a log.P of 3.79. With `COCCNc1c(-c2ccc(F)cc2F)c(Cl)nc2nc(Cl)nn12` [Example 104] the log.P was 2.82. Work on `Fc1ccc(-c2c(Cl)nc3nc(Cl)nn3c2NC2CC2)c(F)c1` [Example 105] yielded a log.P of 3.01. Work on `Fc1ccc(-c2c(Cl)nc3nc(Cl)nn3c2NCC(F)(F)F)c(F)c1` [Example 106] yielded a log.P of 3.19. `Fc1ccc(-c2c(Cl)nc3nc(Cl)nn3c2NCC2CC2)c(F)c1` [Example 107] showed a log.P of 3.36. `C=C(C)CNc1c(-c2ccc(F)cc2F)c(Cl)nc2nc(Cl)nn12` [Example 108] showed a log.P of 3.3. In the case of `CC(C)CC(C)Nc1c(-c2ccc(F)cc2F)c(Cl)nc2nc(Cl)nn12` (centres unmarked) [Example 109], the log.P is reported as 4.31. `CN(C)CCN(C)c1c(-c2ccc(F)cc2F)c(Cl)nc2nc(Cl)nn12` [Example 110] gave a log.P of 1.51. `C#CCN(C)c1c(-c2ccc(F)cc2F)c(Cl)nc2nc(Cl)nn12` [Example 111] showed a log.P of 3.21. Work on `CN(CC1OCCO1)c1c(-c2ccc(F)cc2F)c(Cl)nc2nc(Cl)nn12` [Example 112] yielded a log.P of 3.14. With `CN(Cc1ccco1)c1c(-c2ccc(F)cc2F)c(Cl)nc2nc(Cl)nn12` [Example 113] the log.P was 3.69. Compound `CC(C)CN(C)c1c(-c2ccc(F)cc2F)c(Cl)nc2nc(Cl)nn12` [Example 114] has a log.P of 4.08. For `COCCN(C)c1c(-c2ccc(F)cc2F)c(Cl)nc2nc(Cl)nn12` [Example 115], the log.P was 3.2. Work on `C=C(C)CN(C)c1c(-c2ccc(F)cc2F)c(Cl)nc2nc(Cl)nn12` [Example 116] yielded a log.P of 3.98. `CCN(CCN(C)C)c1c(-c2ccc(F)cc2F)c(Cl)nc2nc(Cl)nn12` [Example 117] gave a log.P of 1.65. With `C=C(C)CN(CC)c1c(-c2ccc(F)cc2F)c(Cl)nc2nc(Cl)nn12` [Example 118] the log.P was 4.3. Work on `C=CCN(CC)c1c(-c2ccc(F)cc2F)c(Cl)nc2nc(Cl)nn12` [Example 119] yielded a log.P of 3.95. `CCN(Cc1ccco1)c1c(-c2ccc(F)cc2F)c(Cl)nc2nc(Cl)nn12` [Example 120] showed a log.P of 3.98. Work on `CCN(CC1CCCO1)c1c(-c2ccc(F)cc2F)c(Cl)nc2nc(Cl)nn12` (centres unmarked) [Example 121] yielded a log.P of 3.87. In the case of `CCN(CCOC)c1c(-c2ccc(F)cc2F)c(Cl)nc2nc(Cl)nn12` [Example 122], the log.P is reported as 3.51. For `CCOC(=O)CN(CC)c1c(-c2ccc(F)cc2F)c(Cl)nc2nc(Cl)nn12` [Example 123], the log.P was 3.61. `CCCCN(CC)c1c(-c2ccc(F)cc2F)c(Cl)nc2nc(Cl)nn12` [Example 124] showed a log.P of 4.5. With `CCN(CC)c1c(-c2ccc(F)cc2F)c(Cl)nc2nc(Cl)nn12` [Example 125] the log.P was 3.74. Compound `CCCN(CC1CC1)c1c(-c2ccc(F)cc2F)c(Cl)nc2nc(Cl)nn12` [Example 126] has a log.P of 4.48. `CCCN(CC1CCCO1)c1c(-c2ccc(F)cc2F)c(Cl)nc2nc(Cl)nn12` (centres unmarked) [Example 127] showed a log.P of 4.29. `CCCN(CCOC)c1c(-c2ccc(F)cc2F)c(Cl)nc2nc(Cl)nn12` [Example 128] gave a log.P of 3.9. Work on `Fc1cccc(Cl)c1-c1c(Cl)nc2nc(Cl)nn2c1N1CCSCC1` [Example 131] yielded a log.P of 3.73. Work on `Fc1cccc(Cl)c1-c1c(Cl)nc2nc(Cl)nn2c1N1CCOCC1` [Example 132] yielded a log.P of 3.02. Compound `Fc1cccc(Cl)c1-c1c(Cl)nc2nc(Cl)nn2c1N1CCCC1` [Example 134] has a log.P of 3.54. With `CCCN(CCOC)c1c(-c2c(F)cccc2Cl)c(Cl)nc2nc(Cl)nn12` [Example 135] the log.P was 4.06. `C=CCN(CC)c1c(-c2c(F)cccc2Cl)c(Cl)nc2nc(Cl)nn12` [Example 137] showed a log.P of 4.16. `CC(C)CNc1c(-c2c(F)cccc2Cl)c(Cl)nc2nc(Cl)nn12` [Example 139] gave a log.P of 3.74.
